# Test results reported in PubChem BioAssay AID1963985 (Molecular Pharmacology Branch, DTP, NCI, 2024).
# System: 252836-082-R-J2-PDC tumor spheroids, viability
# Experiment: Anticancer human tumor 252836-082-R-J2-PDC patient-derived head and neck squamous cell carcinoma cell line growth inhibition [PI3K]
# Conditions: spheroids with HUVEC and MSC; for IC50: curve of first compound; for viability, T/C: stronger effect = lower value
# Text: Combinatorial screen of targeted agents with the PI3K inhibitors inavolisib, alpelisib, duvelisib, and copanlisib in multi-cell type tumor spheroids
# A high-throughput screen of multi-cell type tumor spheroids was designed to identify active combinations of targeted small molecules and PI3K pathway inhibitors. Complex spheroids include a stromal component modeled by human endothelial cells (HUVEC) and fibroblasts modeled by human mesenchymal stem cells (MSCs). The concentration ranges selected for each drug and investigational agent were based upon clinically achievable concentrations if the clinical Cmax of the agent was known.
# Compounds. The drugs and investigational agents: inavolisib (NSC800729), alpelisib (NSC765974), duvelisib (NSC772469), copanlisib (NSC816437), ipatasertib (NSC767898), afuresertib (NSC778305), talazoparib (NSC767125), sapanisertib (NSC764658), selumetinib (NSC741078), tovorafenib (DAY101, NSC766906), vemurafenib (NSC761431), ravoxertinib (NSC781343), sotorasib (NSC818433), MRTX1133 (NSC 836407), abemaciclib (NSC 768073), palbociclib (NSC758247), venetoclax (NSC 766270), SY5609 (NSC837396), enzalutamide (NSC755605), and darolutamide (NSC825331), were obtained from the National Cancer Institute (NCI) Developmental Therapeutics Program Chemical Repository. The FDA-approved anticancer drug set is available from the NCI Developmental Therapeutics Program. […] The stock solutions were prepared in dimethyl sulfoxide (DMSO, Sigma-Aldrich, St. Louis, MO, cat. D2650) at 800-fold the tested concentration and stored at -70 degrees C prior to their use. All drugs and investigational agents were tested over a range starting from a high concentration at or near the clinical Cmax and decreasing in half-log increments. If the clinical Cmax for an agent had not been determined, the highest concentration tested was 10 microM.
# Cell Culture. All cells were maintained in an incubator at 37 degrees C and 5% CO2 with 95% humidity. The PDC lines were cultured according to standard operating procedures established by the NCI PDMR (https://pdmr.cancer.gov/sops/default.htm). All PDCs were thawed and cultured in Matrigel-coated flasks prepared with a working solution of 1X Ham's F-12 nutrient mix, without supplementation (Invitrogen, Waltham, MA, cat. 11765054), 100 U/mL penicillin-streptomycin (Invitrogen, cat. 15140122), and 2.5% Matrigel (Corning Inc., Corning, NY, cat. 354248) for the first three passages. The 354836-022-R-J1-PDC, 475296-252-R-J1-PDC, and 997726-040-R-J2-PDC lines were cultured in 6A media, which includes advanced DMEM/F-12 (Thermo Fisher Scientific, cat. 12634028), 10 mM HEPES (Thermo Fisher Scientific, cat. 15630080), 1X GlutaMAX supplement (Thermo Fisher Scientific, cat. 35050061), 0.1 mg/mL primocin (InvivoGen, San Diego, CA, cat. ant-pm-2), 10% defined fetal bovine serum, heat inactivated (HyClone Laboratories Inc., Logan, UT, cat. SH30070.03HI), 50% L-WRN conditioned media (ATCC, cat. CRL-3276), 1.25 mM N-Acetyl-L-cysteine (Sigma-Aldrich, cat. A9165), 10 mM nicotinamide (Sigma-Aldrich, cat. N0636), 1X B-27 supplement (Thermo Fisher Scientific, cat. 17504044), 1X N-2 supplement (Thermo Fisher Scientific, cat. 17502048), and 10 microM Y-27632 dihydrochloride (Tocris Bioscience, Bristol, United Kingdom, cat. 1254). The 624824-186-R-J2-PDC line was cultured in 6C/Colon 1B media, which includes all 6A media components plus 50 ng/mL human EGF recombinant protein (Thermo Fisher Scientific, cat. PHG0311). […]
# [1] = second compound 0.00316 µM, first compound 0.0316 µM
# [2] = second compound 0.00316 µM, first compound 0.1 µM
# [3] = second compound 0.00316 µM, first compound 0.316 µM
# [4] = second compound 0.00316 µM, first compound 1 µM
# [5] = second compound 0.00316 µM, first compound 3.16 µM
# [6] = second compound 0.00316 µM, first compound 10 µM
# [7] = second compound 0.01 µM, first compound 0.0316 µM
# [8] = second compound 0.01 µM, first compound 0.1 µM
# [9] = second compound 0.01 µM, first compound 0.316 µM
# [10] = second compound 0.01 µM, first compound 1 µM
# [11] = second compound 0.01 µM, first compound 3.16 µM
# [12] = second compound 0.01 µM, first compound 10 µM
# [13] = second compound 0.0316 µM, first compound 0.0316 µM
# [14] = second compound 0.0316 µM, first compound 0.1 µM
# [15] = second compound 0.0316 µM, first compound 0.316 µM
# [16] = second compound 0.0316 µM, first compound 1 µM
# [17] = second compound 0.0316 µM, first compound 3.16 µM
# [18] = second compound 0.0316 µM, first compound 10 µM
# [19] = second compound 0.1 µM, first compound 0.0316 µM
# [20] = second compound 0.1 µM, first compound 0.1 µM
# [21] = second compound 0.1 µM, first compound 0.316 µM
# [22] = second compound 0.1 µM, first compound 1 µM
# [23] = second compound 0.1 µM, first compound 3.16 µM
# [24] = second compound 0.1 µM, first compound 10 µM
# [25] = second compound 0.316 µM, first compound 0.0316 µM
# [26] = second compound 0.316 µM, first compound 0.1 µM
# [27] = second compound 0.316 µM, first compound 0.316 µM
# [28] = second compound 0.316 µM, first compound 1 µM
# [29] = second compound 0.316 µM, first compound 3.16 µM
# [30] = second compound 0.316 µM, first compound 10 µM
# [31] = second compound 1 µM, first compound 0.0316 µM
# [32] = second compound 1 µM, first compound 0.1 µM
# [33] = second compound 1 µM, first compound 0.316 µM
# [34] = second compound 1 µM, first compound 1 µM
# [35] = second compound 1 µM, first compound 3.16 µM
# [36] = second compound 1 µM, first compound 10 µM
# 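Also: spheroids exposed to agents for seven days before readout.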
# 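For viability, T/C in this document: percent of vehicle DMSO control viability so 100% = untreated growth.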
structure (smiles),measurement,setting,value
Cn1ncc(Cl)c1-c1cc(C(=O)NC(CN)Cc2cccc(F)c2)sc1Cl (centres undefined) + CC(Nc1ccc2c(c1)OCCn1cc(N3C(=O)OCC3C(F)F)nc1-2)C(N)=O,IC50,second compound 0.00316 µM,383 nM
same,IC50,second compound 0.01 µM,294 nM
same,IC50,second compound 0.0316 µM,328 nM
same,IC50,second compound 0.1 µM,160 nM
same,IC50,second compound 0.316 µM,< 31.6 nM
same,IC50,second compound 1 µM,< 31.6 nM
same,"viability, T/C",[1],82.5%
same,"viability, T/C",[2],67.8%
same,"viability, T/C",[3],47.6%
same,"viability, T/C",[4],39.8%
same,"viability, T/C",[5],29.7%
same,"viability, T/C",[6],9.51%
same,"viability, T/C",[7],80.8%
same,"viability, T/C",[8],62.8%
same,"viability, T/C",[9],50%
same,"viability, T/C",[10],33.6%
same,"viability, T/C",[11],26.7%
same,"viability, T/C",[12],12.8%
same,"viability, T/C",[13],74.2%
same,"viability, T/C",[14],61.8%
same,"viability, T/C",[15],48.8%
same,"viability, T/C",[16],39.3%
same,"viability, T/C",[17],26.6%
same,"viability, T/C",[18],11.5%
same,"viability, T/C",[19],66.9%
same,"viability, T/C",[20],53.3%
same,"viability, T/C",[21],45.8%
same,"viability, T/C",[22],26.9%
same,"viability, T/C",[23],24.7%
same,"viability, T/C",[24],8%
same,"viability, T/C",[25],45.5%
same,"viability, T/C",[26],43.3%
same,"viability, T/C",[27],34.3%
same,"viability, T/C",[28],25.6%
same,"viability, T/C",[29],22.4%
same,"viability, T/C",[30],14.1%
same,"viability, T/C",[31],40.9%
same,"viability, T/C",[32],36.8%
same,"viability, T/C",[33],30.3%
same,"viability, T/C",[34],24.8%
same,"viability, T/C",[35],23.7%
same,"viability, T/C",[36],10.5%
C=CC(=O)N1CCN(c2nc(=O)n(-c3c(C)ccnc3C(C)C)c3nc(-c4c(O)cccc4F)c(F)cc23)C(C)C1 (centres undefined) + CC(Nc1ccc2c(c1)OCCn1cc(N3C(=O)OCC3C(F)F)nc1-2)C(N)=O,IC50,second compound 0.00316 µM,> 10000 nM
same,IC50,second compound 0.01 µM,> 10000 nM
same,IC50,second compound 0.0316 µM,> 10000 nM
same,IC50,second compound 0.1 µM,> 10000 nM
same,IC50,second compound 0.316 µM,> 10000 nM
same,IC50,second compound 1 µM,< 31.6 nM
same,"viability, T/C",[1],104%
same,"viability, T/C",[2],87.8%
same,"viability, T/C",[3],105%
same,"viability, T/C",[4],105%
same,"viability, T/C",[5],115%
same,"viability, T/C",[6],95.9%
same,"viability, T/C",[7],95.3%
same,"viability, T/C",[8],90%
same,"viability, T/C",[9],117%
same,"viability, T/C",[10],86.8%
same,"viability, T/C",[11],104%
same,"viability, T/C",[12],89.7%
same,"viability, T/C",[13],79.2%
same,"viability, T/C",[14],78.6%
same,"viability, T/C",[15],104%
same,"viability, T/C",[16],88.4%
same,"viability, T/C",[17],100%
same,"viability, T/C",[18],78.3%
same,"viability, T/C",[19],76.1%
same,"viability, T/C",[20],62.8%
same,"viability, T/C",[21],76.9%
same,"viability, T/C",[22],76.3%
same,"viability, T/C",[23],81%
same,"viability, T/C",[24],94.6%
same,"viability, T/C",[25],63.5%
same,"viability, T/C",[26],60.6%
same,"viability, T/C",[27],59.5%
same,"viability, T/C",[28],56.3%
same,"viability, T/C",[29],62.2%
same,"viability, T/C",[30],67.6%
same,"viability, T/C",[31],45.3%
same,"viability, T/C",[32],53%
same,"viability, T/C",[33],53.3%
same,"viability, T/C",[34],41.6%
same,"viability, T/C",[35],57%
same,"viability, T/C",[36],47.7%
